In general, EC50 refers to the midpoint of the concentration-response curve.

The target of the experiment is T1, Poly [ADP-ribose] polymerase tankyrase-2 (Homo sapiens, UniProt Q9H2K2).
T1 sequence (Q9H2K2 whole entry): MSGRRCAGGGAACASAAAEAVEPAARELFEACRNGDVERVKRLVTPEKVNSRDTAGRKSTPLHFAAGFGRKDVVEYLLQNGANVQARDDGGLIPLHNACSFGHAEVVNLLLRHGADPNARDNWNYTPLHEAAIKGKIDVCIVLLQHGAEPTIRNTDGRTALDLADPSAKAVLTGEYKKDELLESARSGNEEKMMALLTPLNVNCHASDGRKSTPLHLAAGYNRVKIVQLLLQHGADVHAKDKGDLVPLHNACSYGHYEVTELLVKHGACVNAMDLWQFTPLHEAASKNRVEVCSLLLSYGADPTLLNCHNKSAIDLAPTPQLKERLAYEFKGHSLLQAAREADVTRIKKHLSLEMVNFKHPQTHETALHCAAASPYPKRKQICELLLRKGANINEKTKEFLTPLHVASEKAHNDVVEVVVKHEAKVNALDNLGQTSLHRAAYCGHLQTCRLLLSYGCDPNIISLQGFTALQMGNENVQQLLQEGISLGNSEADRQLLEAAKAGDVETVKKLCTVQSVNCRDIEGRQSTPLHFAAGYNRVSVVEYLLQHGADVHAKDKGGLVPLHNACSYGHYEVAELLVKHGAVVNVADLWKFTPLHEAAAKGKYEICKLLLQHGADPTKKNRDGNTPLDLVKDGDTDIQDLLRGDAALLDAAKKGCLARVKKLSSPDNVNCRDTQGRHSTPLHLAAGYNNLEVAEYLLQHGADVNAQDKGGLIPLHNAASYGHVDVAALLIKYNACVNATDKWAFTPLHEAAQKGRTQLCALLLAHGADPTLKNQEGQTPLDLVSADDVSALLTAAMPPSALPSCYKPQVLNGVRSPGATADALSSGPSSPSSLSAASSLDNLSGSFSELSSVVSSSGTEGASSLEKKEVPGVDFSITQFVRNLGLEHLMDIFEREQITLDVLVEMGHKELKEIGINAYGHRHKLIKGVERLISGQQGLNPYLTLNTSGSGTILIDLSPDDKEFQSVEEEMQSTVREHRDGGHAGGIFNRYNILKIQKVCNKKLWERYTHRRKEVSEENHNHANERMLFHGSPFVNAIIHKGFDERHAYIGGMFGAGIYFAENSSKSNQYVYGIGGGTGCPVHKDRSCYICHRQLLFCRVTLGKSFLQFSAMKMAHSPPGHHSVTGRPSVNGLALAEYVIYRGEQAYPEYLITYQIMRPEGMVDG
The experiment is described as follows: Activity of N-terminus hexaHis-tagged human TNSK2 expressed in Escherichia coli BL21 (DE3) cells using biotinylated NAD+ as substrate after 90 mins by Western blot analysis. (In general: A western blot detects proteins with antibodies after separation by electrophoresis.)

The molecule `O=C(Nc1ccccc1)c1ccc(N2C(=O)[C@@H]3[C@H](C2=O)[C@@H]2C=C[C@H]3C2)cc1` gave an EC50 greater than 25 µM.
The result for `CO[C@H]1CCCC[C@@H]1NC(=O)c1ccc(N2C(=O)[C@@H]3[C@H](C2=O)[C@@H]2C=C[C@H]3C2)cc1` reads 2 µM; that for `O=C(Nc1ccc(Br)cc1)c1ccc(N2C(=O)[C@@H]3[C@H](C2=O)[C@@H]2C=C[C@H]3C2)cc1`, 1 µM.
The result for `O=C(NCc1ccncc1)c1ccc(N2C(=O)[C@@H]3[C@H](C2=O)[C@@H]2C=C[C@H]3C2)cc1` reads 10 µM; that for `O=C(NCc1ccccc1)c1ccc(N2C(=O)[C@@H]3[C@H](C2=O)[C@@H]2C=C[C@H]3C2)cc1`, 20 µM.
The result for `O=C(NC1CCCCC1)c1ccc(N2C(=O)[C@@H]3[C@H](C2=O)[C@@H]2C=C[C@H]3C2)cc1` reads greater than 25 µM.

Values taken from ChEMBL document CHEMBL2029260, “Structural basis of selective inhibition of human tankyrases” (J Med Chem, 2012).
